Drawing on ChEMBL document CHEMBL1126118, “Synthesis and biological activity of ketomethylene pseudopeptide analogues as thrombin inhibitors” (J Med Chem, 1992), this text covers APTT, Ki and TT for six compounds.

The species entered for assay [1] is Homo sapiens. Kind of assay: Concentration required to double the activated partial thromboplastin time of human plasma was measured. Format: functional.
Another assay addresses Prothrombin (Homo sapiens, UniProt P00734). As to the kind of experiment: In vitro inhibitory activity against thrombin.
In a further assay the target is Coagulation factor X (Homo sapiens, UniProt P00742). As to the kind of experiment: In vitro inhibitory activity against Coagulation factor X.
Coagulation factor X, sequence (P00742 41-179 limits assumed): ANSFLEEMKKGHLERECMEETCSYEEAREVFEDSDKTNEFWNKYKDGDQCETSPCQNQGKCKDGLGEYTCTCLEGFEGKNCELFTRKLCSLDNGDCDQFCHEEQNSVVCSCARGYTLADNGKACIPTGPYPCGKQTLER
Coagulation factor X, sequence (P00742 235-488 limits assumed): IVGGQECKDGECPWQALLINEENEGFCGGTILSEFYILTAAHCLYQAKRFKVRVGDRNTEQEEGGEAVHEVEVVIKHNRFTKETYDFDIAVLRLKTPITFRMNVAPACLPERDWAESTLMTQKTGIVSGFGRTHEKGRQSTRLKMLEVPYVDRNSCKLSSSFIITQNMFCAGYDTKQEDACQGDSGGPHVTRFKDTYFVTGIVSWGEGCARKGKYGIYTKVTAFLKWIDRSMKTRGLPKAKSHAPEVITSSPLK
For assay [2], the species on record is Homo sapiens. Kind of assay: Concentration required to double the human alpha-thrombin induced clotting time of human plasma. Format: functional.
In a further assay the target is Kallikrein-1 (Homo sapiens, UniProt P06870). Kind of assay: In vitro inhibitory activity against Kallikrein.
Kallikrein-1, sequence (P06870 whole entry): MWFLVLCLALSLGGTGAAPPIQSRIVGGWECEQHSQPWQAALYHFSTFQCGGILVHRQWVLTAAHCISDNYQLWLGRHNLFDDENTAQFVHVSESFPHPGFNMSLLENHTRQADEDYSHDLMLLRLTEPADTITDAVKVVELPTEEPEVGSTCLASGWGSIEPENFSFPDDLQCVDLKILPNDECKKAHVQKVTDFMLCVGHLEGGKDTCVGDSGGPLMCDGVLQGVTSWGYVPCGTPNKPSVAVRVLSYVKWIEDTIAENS
The target of another assay is Plasminogen (Rattus norvegicus, UniProt Q01177). As to the kind of experiment: In vitro inhibitory activity against plasmin.
Plasminogen, sequence (Q01177 97-581 limits assumed): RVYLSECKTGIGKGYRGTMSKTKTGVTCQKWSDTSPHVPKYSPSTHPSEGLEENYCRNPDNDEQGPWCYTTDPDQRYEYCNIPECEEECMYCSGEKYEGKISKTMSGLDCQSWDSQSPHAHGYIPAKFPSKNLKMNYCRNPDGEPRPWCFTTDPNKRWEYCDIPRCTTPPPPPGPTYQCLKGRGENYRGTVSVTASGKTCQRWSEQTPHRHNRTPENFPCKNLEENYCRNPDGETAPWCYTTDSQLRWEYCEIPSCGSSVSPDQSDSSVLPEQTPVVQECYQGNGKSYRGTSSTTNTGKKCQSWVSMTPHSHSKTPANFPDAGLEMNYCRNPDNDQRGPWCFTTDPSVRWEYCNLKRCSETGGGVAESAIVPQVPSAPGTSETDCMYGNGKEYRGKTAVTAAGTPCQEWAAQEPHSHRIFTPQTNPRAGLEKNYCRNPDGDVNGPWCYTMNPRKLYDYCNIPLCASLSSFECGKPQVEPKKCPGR
Plasminogen, sequence (Q01177 582-812 limits assumed): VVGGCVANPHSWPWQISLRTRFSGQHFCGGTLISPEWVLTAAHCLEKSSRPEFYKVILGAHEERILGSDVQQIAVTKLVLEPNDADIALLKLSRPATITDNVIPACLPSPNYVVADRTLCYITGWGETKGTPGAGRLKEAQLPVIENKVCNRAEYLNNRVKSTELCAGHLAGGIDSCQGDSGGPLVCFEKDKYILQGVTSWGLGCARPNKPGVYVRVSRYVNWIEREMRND
For assay [3], the target named is Urokinase-type plasminogen activator (Homo sapiens, UniProt P00749). Kind of assay: In vitro inhibitory activity against Urokinase-type plasminogen activator.

Structures are written as SMILES.

In the case of `NC(N)=NCCCC(NC(=O)[C@@H]1CCCN1C(=O)C(N)C(c1ccccc1)c1ccccc1)C(=O)CCC(=O)N1CCCCC1.O=C(O)C(F)(F)F.O=C(O)C(F)(F)F` (stereo partly specified), the APTT in the assay filed under Homo sapiens [1] was found to be 45 µM. Besides, the affinity on Prothrombin corresponds to a Ki of 0.6 µM.

Regarding `NC(N)=NCCCC(NC(=O)[C@@H]1CCCN1C(=O)[C@H](N)C(c1ccccc1)c1ccccc1)C(=O)CCC(=O)N1CCCCC1.O=C(O)C(F)(F)F.O=C(O)C(F)(F)F` (stereo partly specified), the Ki (in general, the equilibrium dissociation constant of an inhibitor or competing ligand from its target) is 149 µM on Coagulation factor X; 199 µM on Kallikrein-1; 157 µM on Plasminogen; 0.2 µM at Prothrombin; 494 µM in assay [3]. The compound further displayed a TT in the assay filed under Homo sapiens [2] of 0.65 µM. Further, the APTT in the assay listed under Homo sapiens [1] was 8 µM.

`NC(N)=NCCCC(NC(=O)[C@@H]1CCCN1C(=O)[C@H](N)Cc1ccccc1)C(=O)CCC(=O)N1CCCCC1` (stereo partly specified) had a TT in the assay filed under Homo sapiens [2] of 4.9 µM.

On to `NC(N)=NCCCC(NC(=O)[C@@H]1CCCN1C(=O)C(N)Cc1ccc2ccccc2c1)C(=O)CCC(=O)N1CCCCC1.O=C(O)C(F)(F)F.O=C(O)C(F)(F)F` (stereo partly specified), for which the TT in the assay filed under Homo sapiens [2] worked out at 90 µM. The Ki on Prothrombin worked out at 11.6 µM.

`NC(N)=NCCCC(NC(=O)[C@@H]1CCCN1C(=O)[C@@H](N)C(c1ccccc1)c1ccccc1)C(=O)CCC(=O)N1CCCCC1.O=C(O)C(F)(F)F.O=C(O)C(F)(F)F` (stereo partly specified) displayed a TT in the assay listed under Homo sapiens [2] of 7.5 µM. Besides, the APTT in the assay listed under Homo sapiens [1] is 100 µM. This compound registered an inhibition constant (Ki) at Prothrombin of 1.7 µM.

Compound `NC(N)=NCCCC(NC(=O)[C@@H]1CCCN1C(=O)[C@H](N)Cc1ccc2ccccc2c1)C(=O)CCC(=O)N1CCCCC1` (stereo partly specified) came in with a Ki on Prothrombin of 2.28 µM.
